According to patent US12383569B2, “Immunomodulatory oligosaccharides for the treatment of pain” (Intrinsic Medicine, Inc., priority 2019, dated 2025):
≈ marks a conversion by molar mass, not a printed value. Entries after “also recorded” stand apart in the source; their conditions may differ.

How the values were obtained:
[1] = test system: THP-1 monocytic cell line; test: Pro-inflammatory cytokine expression in human monocytic cell line; type: cell-based; details: human THP-1 monocytic cell line
Description: (§1) Accordingly, the results with 3′SL translate to primary cells as well as to human macrophages.

[2] = test system: IL-1β mRNA in RAW 264.7 cells; test: IL-1β mRNA expression in LPS-stimulated macrophages (RT-PCR); type: cell-based, murine; details: LPS-activated macrophages, single oligosaccharide, 6 hours
Method: (§2) RAW246.7 cells were exposed to LPS either alone or in combination with either pooled human milk oligosaccharides (HMOs), or 3′-sialyllactose (3′SL) or 2′-fucosyllactose (2′FL). After 6 hours, IL-6 (A) and IL-1β (B) mRNA levels were measured by RT-PCR and are plotted as mean±standard deviation (n=8) relative the respective mRNA levels in cells that were exposed to LPS alone (**p<0.01; ***p<0.001). HMOs are a group of more than 150 different structurally distinct oligosaccharides and their composition follows a basic structural blueprint (C), containing five monosaccharide building blocks: glucose (dark gray circle), galactose (light gray circle), N-acetylglucosamine (dark gray square), fucose (gray triangle) and sialic acid (gray diamond). 3′SL contains lactose with sialic acid at the terminal end; 2′FL contains lactose with fucose at the terminal end.
(§3) Oligosaccharides Reduce Pro-Inflammatory Cytokine mRNA Expression in Stimulated Macrophages. HMOs were first isolated and purified from pooled human donor milk (pHMO) by using polymixin B affinity chromatography to remove any lipopolysaccharide (LPS) contamination. RAW 264.7 cells, a murine macrophage cell line, were then incubated with LPS (10 ng/mL) and pHMO (500 μg/mL) for 6 hours. RT-PCR was used to measure cytokine mRNA expression. […]

[3] = test system: IL-6 mRNA in RAW 264.7 cells; test: IL-6 mRNA expression in LPS-stimulated macrophages (RT-PCR); type: cell-based, murine; details: LPS-activated macrophages, single oligosaccharide, 6 hours
Method: as §2, §3

[4] = test system: collagen antibody-induced arthritis (CAIA) mouse model; test: Collagen antibody-induced arthritis (CAIA) model; type: in vivo, BALB/c mice; details: for histology score for cartilage damage / histology score for erosion / histology score for inflammation: hind paws, day 14, scored 0 to 4
Method: Next, it was asked whether or not the in vitro results translate to an in vivo model. 3′ SL efficacy in a collagen antibody-induced arthritis (CAIA) model was tested in mice. In the CAIA model, arthritis is induced by systemic administration of a cocktail of monoclonal antibodies that target various regions of collagen type II, which is one of the major constituents of articular cartilage matrix proteins, followed by the administration of endotoxin (LPS) on day 3. The high uptake rate in the CAIA model and the capacity to synchronize the development of arthritis from the time of antibody injection, makes this a relatively straightforward model that is used to address questions of pathogenic mechanisms and to screen candidate therapeutic agents. 8-week old female BALB/c mice were injected with 1.5 mg of Arthrogen-CIA monoclonal antibody cocktail (Chondrex, Inc.).
Three days later, the mice were injected with 25 μg of LPS. Beginning with the time of LPS administration and followed for the next 11 consecutive days, mice were orally gavaged thrice daily with either 3′ SL (20 mg in saline) or saline alone as control. With the tester blinded to the study groups, arthritis in each limb was determined once per day. […] By adding together, the scores of all four limbs, the maximum score per mouse is 28. In addition, a caliper was placed across the ankle joint at the widest point to measure ankle thickness in both hind limbs daily. 14 days after antibody cocktail administration, mice were euthanized, and hind paws collected and processed for histology. H&E—as well as Toluidine blue-stained sections were scored from 0 to 4 for inflammation, bone erosion and cartilage depletion based on a previously validated scoring system.

[5] = test system: bone marrow derived macrophages; test: Pro-inflammatory cytokine expression in primary mouse cells; type: cell-based
Description: as §1

[6] = test system: IL-6 and IL-1β mRNA expression; test: Dose-range finding for reduction of IL-6 and IL-1β mRNA expression in stimulated macrophages; type: cell-based; details: Macrophage, dose-range finding studies
Description: A multi-dimensional chromatography approach was used that separates pHMO first by charge and then by size. […] To exclude that the observed effect was due to impurities or contaminations from the isolation process, the results were confirmed with synthetized and commercially available 3′SL. […] Other oligosaccharides like 2′-fucosyllactose (2′FL), where the terminal monosaccharide is fucose instead of sialic acid (see FIG. 1C), had no effect, emphasizing that the anti-inflammatory effect of 3′ SL in macrophages is specific to the structure of 3′SL.

[7] = test system: acetic acid-induced writhing; test: Acetic acid-induced writhing test; type: in vivo; details: mice pretreated by oral or intravenous administration prior to acetic acid
[8] = CAIA mice, oral gavage 20 mg thrice daily from LPS trigger, vs saline
[9] = oral gavage 20 mg thrice daily, listed as 3′ SL

SMILES | pro-inflammatory cytokine expression [1] | reduction of IL-1β mRNA expression [2] | reduction of IL-6 mRNA expression [3] | Baseline-corrected ankle thickness (paw swelling) [4, 8] | clinical index score 28 [4, 8] | histology score for cartilage damage ([4]; oral gavage 20 mg thrice daily) | histology score for erosion ([4]; oral gavage 20 mg thrice daily) | histology score for inflammation ([4]; oral gavage 20 mg thrice daily) | histology score for cartilage damage [4, 9] | histology score for erosion [4, 9] | histology score for inflammation [4, 9] | adverse effects ([4]; throughout the 14-day study period, CAIA mice, oral gavage 20 mg thrice daily) | pro-inflammatory cytokine expression [5] | IC50 [6] | inhibition of writhing [7]
CC(=O)N[C@H]1C([C@H](O)[C@H](O)CO)O[C@@](O[C@@H]2C(O)[C@H](O[C@@H]3C(CO)O[C@@H](O)C(O)[C@H]3O)OC(CO)[C@@H]2O)(C(=O)O)C[C@H]1O (stereo partly drawn) [3′SL, 3′-sialyllactose] | reduced pro-inflammatory cytokine expression | most effective; also recorded: reduces | most effective; also recorded: reduces | significantly reduced; also recorded: reduces | significantly reduced; also recorded: reduces | significantly lower | significantly lower | significantly lower | significantly reduced | significantly reduced | significantly reduced | No adverse effects | reduced pro-inflammatory cytokine expression | ~15 µg/mL (≈ 23.7 µM) | –
CC(=O)N[C@H]1[C@H]([C@H](O)[C@H](O)CO)O[C@@](O[C@H]2[C@@H](O)[C@@H](CO)O[C@@H](O[C@H]3[C@H](O)[C@@H](O)C(O)O[C@@H]3CO)[C@@H]2O)(C(=O)O)C[C@@H]1O (stereo partly drawn) [Sialyllactose] | – | – | – | – | – | – | – | – | – | – | – | – | – | – | causes inhibition of writhing
